From publication PMC10648852, “Molecular drivers of resistance to sulbactam-durlobactam in contemporary clinical isolates of Acinetobacter baumannii” (Antimicrobial Agents and Chemotherapy, 2023)
Like-named read-outs stand apart in the source and are kept apart here.

Tests used:
[1] = tested on: A. baumannii clinical isolates; test: microbe, parasite or virus in culture; format: cell-based; settings: Acinetobacter baumannii
Procedure, shortened: (§1)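 SUL-DUR combines serially twofold-diluted sulbactam with durlobactam held at 4 µg/mL; MICs obtained by CLSI-standard broth microdilution and read against CLSI breakpoints when these exist.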

[2] = tested on: A. pittii clinical isolates; test: microbe, parasite or virus in culture; format: cell-based; settings: Acinetobacter pittii
Procedure, shortened: as §1

A. baumannii PBP3 S395F = test: Acylation rate constant (kinact/Ki), fluorescence anisotropy competition with BOCILLIN; settings: variant data from McLeod et al. (2018)
A. baumannii PBP3 N392T = test: as above
A. baumannii PBP3 S390T = tested on: A. baumannii PBP3 S390T; set-up: method as in McLeod et al. (2018); settings: average ± SD, ref McLeod et al. (2018); cited from earlier work

CC1(C)[C@H](C(=O)O)N2C(=O)C[C@H]2S1(=O)=O [sulbactam]
MIC ([1]; isolate ARC6953 (IHMA 1909827), Turkey, IAI, 2018, read-out: MIC): 64 µg/mL | MIC ([1]; isolate ARC6954 (IHMA 1838192), Guatemala, SSSI, 2018, read-out: MIC): > 64 µg/mL | MIC ([1]; isolate ARC6955 (IHMA 1825425), United States, RTI, 2018, read-out: MIC): 16 µg/mL | MIC ([1]; isolate ARC7008 (IHMA 2009813), Thailand, BSI, 2019, read-out: MIC): > 64 µg/mL | MIC ([1]; isolate ARC7009 (IHMA 2043611), United States, UTI, 2019, read-out: MIC): > 64 µg/mL | MIC ([1]; isolate ARC7010 (IHMA 2043398), United States, RTI, 2019, read-out: MIC): > 64 µg/mL | MIC ([1]; isolate ARC7011 (IHMA 2104553), Germany, RTI, 2019, read-out: MIC): > 64 µg/mL | MIC ([1]; isolate ARC7012 (IHMA 2010001), Thailand, RTI, 2019, read-out: MIC): > 64 µg/mL | MIC ([1]; isolate ARC7013 (IHMA 1962831), Argentina, RTI, 2019, read-out: MIC): > 64 µg/mL | MIC ([1]; isolate ARC7014 (IHMA 2045328), Guatemala, IAI, 2019, read-out: MIC): 64 µg/mL | MIC ([1]; isolate ARC7015 (IHMA 2045327), Guatemala, UTI, 2019, read-out: MIC): > 64 µg/mL | MIC ([1]; isolate ARC7016 (IHMA 2148441), Brazil, BSI, 2019, read-out: MIC): 64 µg/mL | MIC ([1]; isolate ARC7017 (IHMA 2148446), Brazil, BSI, 2019, read-out: MIC): 64 µg/mL | MIC ([1]; isolate ARC7018 (IHMA 2045454), Guatemala, IAI, 2019, read-out: MIC): > 64 µg/mL | MIC ([1]; isolate ARC7019 (IHMA 2114463), Thailand, RTI, 2019, read-out: MIC): 32 µg/mL | MIC ([1]; isolate ARC7020 (IHMA 2045326), Guatemala, RTI, 2019, read-out: MIC): 32 µg/mL | MIC ([1]; isolate ARC7021 (IHMA 1966347), Guatemala, RTI, 2019, read-out: MIC): > 64 µg/mL | MIC ([1]; isolate ARC7022 (IHMA 2045319), Guatemala, IAI, 2019, read-out: MIC): 32 µg/mL | MIC ([1]; isolate ARC7024 (IHMA 2059448), Turkey, RTI, 2019, read-out: MIC): 64 µg/mL | MIC ([1]; isolate ARC7025 (IHMA 2002121), Spain, RTI, 2019, read-out: MIC): 32 µg/mL | MIC ([1]; isolate ARC7026 (IHMA 2104494), Guatemala, BSI, 2019, read-out: MIC): 32 µg/mL | MIC ([1]; isolate ARC7082 (IHMA 2160640), Belgium, BSI, 2020, read-out: MIC): > 64 µg/mL | MIC ([1]; isolate ARC7083 (IHMA 2163687), United States, RTI, 2020, read-out: MIC): 64 µg/mL | MIC ([1]; isolate ARC7084 (IHMA 2189596), Germany, RTI, 2020, read-out: MIC): > 64 µg/mL | MIC ([1]; isolate ARC7085 (IHMA 2205747), Guatemala, IAI, 2020, read-out: MIC): > 64 µg/mL | MIC ([1]; isolate ARC7086 (IHMA 2207563), Israel, RTI, 2020, read-out: MIC): 32 µg/mL | MIC ([1]; isolate ARC7088 (IHMA 2215554), Turkey, BSI, 2020, read-out: MIC): > 64 µg/mL | MIC ([1]; isolate ARC7089 (IHMA 2240345), Argentina, BSI, 2020, read-out: MIC): > 64 µg/mL | MIC ([1]; isolate ARC7090 (IHMA 2244410), Poland, RTI, 2020, read-out: MIC): > 64 µg/mL | MIC ([1]; isolate ARC7091 (IHMA 2244564), Australia, RTI, 2020, read-out: MIC): > 64 µg/mL | MIC ([1]; isolate ARC7092 (IHMA 2258772), United States, BSI, 2020, read-out: MIC): > 64 µg/mL | MIC ([1]; isolate ARC7093 (IHMA 2258783), United States, RTI, 2020, read-out: MIC): 64 µg/mL | MIC ([1]; isolate ARC7094 (IHMA 2296423), Turkey, RTI, 2020, read-out: MIC): > 64 µg/mL | MIC ([1]; isolate ARC7095 (IHMA 2320843), Turkey, BSI, 2020, read-out: MIC): 64 µg/mL | MIC ([1]; isolate ARC7156 (IHMA 2455450), Greece, RTI, 2021, read-out: MIC): > 64 µg/mL | MIC ([1]; isolate ARC7158 (IHMA 2523738), Italy, BSI, 2021, read-out: MIC): > 64 µg/mL | MIC ([1]; isolate ARC7159 (IHMA 2456229), Malaysia, RTI, 2021, read-out: MIC): > 64 µg/mL | MIC ([1]; isolate ARC7160 (IHMA 2458626), Thailand, RTI, 2021, read-out: MIC): 64 µg/mL | MIC ([1]; isolate ARC7161 (IHMA 2429252), Ukraine, RTI, 2021, read-out: MIC): 8 µg/mL | MIC ([1]; isolate ARC7162 (IHMA 2411847), United States, BSI, 2021, read-out: MIC): > 64 µg/mL | MIC ([1]; isolate ARC7163 (IHMA 2477704), United States, BSI, 2021, read-out: MIC): > 64 µg/mL | MIC ([2]; isolate ARC6949 (IHMA 1898982), Romania, RTI, 2018, read-out: MIC): 64 µg/mL | MIC ([2]; isolate ARC6951 (IHMA 1776233), Philippines, RTI, 2018, read-out: MIC): > 64 µg/mL | MIC ([2]; isolate ARC6952 (IHMA 1899008), Romania, RTI, 2018, read-out: MIC): > 64 µg/mL | MIC ([2]; isolate ARC7087 (IHMA 2212062), Colombia, BSI, 2020, read-out: MIC): 64 µg/mL | % WT (A. baumannii PBP3 S395F): 4.2% | % WT (A. baumannii PBP3 N392T): ~ 120% | k inact/K i (A. baumannii PBP3 N392T; average ± SD): 18 ± 1 ([2]) M^-1s^-1 | % WT (A. baumannii PBP3 N392T; listed as Sulbactam): 120% | k inact/K i (A. baumannii PBP3 S390T): 0.03 ± 0.02 ([3]) M^-1s^-1
